Laboratory results from US10933053B2, “Treating infections with ceftolozane/tazobactam in subjects having impaired renal function” (MERCK SHARP & DOHME CORP., priority 2013, dated 2021).
Marks after values point to notes of the source that are not given here.

Experiments:
[1] = tested on: Gram-negative aerobic organisms isolated from patients with cUTI; experiment: Susceptibility testing of baseline cUTI isolates, CLSI broth microdilution (tazobactam fixed 4 μg/mL); type: cell-based; conditions: mMITT; ceftolozane/tazobactam breakpoint ≤8 mg/1, levofloxacin CLSI criteria
Protocol: 764 isolates of Gram-negative aerobic organisms were isolated from 800 patients in the microbiological modified intent-to-treat population (enrolled in 20 countries in Eastern Europe, North America, South America and 5 countries outside of these regions). Susceptibility (S) testing was performed with ceftolozane/tazobactam at a fixed 4 μg/mL of tazobactam and 10 antibiotic comparators using CLSI broth microdilution methods. ESBL enzymes were identified by PCR.

[2] = clinical; conditions: human, in vivo
Text: The most common adverse reactions (≥5% in either indication) occurring in patients receiving CXA-201 were nausea, headache and diarrhea. Table 3 lists adverse reactions occurring in ≥1.0% of patients receiving CXA-201 in Phase 3 clinical trials.
The majority of adverse events were mild to moderate in severity, and the incidence of treatment-limiting adverse events was <2% in both treatment groups. Epidemiology and susceptibility of organisms isolated from patients with cUTI.

[3] = tested on: baseline uropathogens (complicated urinary tract infections); experiment: Phase 3 study of complicated urinary tract infections incl. pyelonephritis: composite cure / microbiological eradication at test-of-cure; type: in vivo, human; conditions: mMITT; patients with concurrent bacteremia
Text: The primary efficacy endpoint was the composite microbiological and clinical cure response at the test-of-cure (TOC) visit in the microbiologically modified intent-to-treat (mMITT) population, which included all patients who received study medication and had at least 1 baseline uropathogen. The key secondary efficacy endpoint was the composite microbiological and clinical cure response at the TOC visit in the microbiologically evaluable (ME) population, which included protocol-adherent mMITT patients with a urine culture at the TOC visit.

[4] = clinical; conditions: human, in vivo; remark: listed apart in the source
Protocol: The extent of ceftolozane exposure increases with decreasing renal function. […] In subjects with moderate renal impairment, exposure approximately doubles relative to that in subjects with normal renal function.
For tazobactam, this estimated exposure from a dose of 125 mg in subjects with severe renal impairment not on hemodialysis is similar to that achieved with 500 mg tazobactam in subjects with normal renal function (23.8 μg·h/mL).

[5] = clinical; conditions: human, in vivo, 750 mg
Protocol: (§1) This was a Phase 1, multicenter, prospective, open-label study of 750 mg ceftolozane/tazobactam (as CXA-201) administered IV in male and female adult subjects with severe renal impairment (estimated CLCR<30 mL/min) and subjects with end-stage renal disease (ESRD) on hemodialysis (HD). The primary objective of the study was to determine the PK profile of ceftolozane/tazobactam in subjects with severe renal impairment and subjects with ESRD on HD and to determine the effect of HD on the clearance of ceftolozane/tazobactam.
(§2) Subjects with severe renal impairment received a single IV 1-hour infusion of 750 mg ceftolozane/tazobactam on Day 1. […] Subjects in this cohort received an IV dose of 750 mg ceftolozane/tazobactam as a 1 hour infusion immediately after their first HD session on Day 1 (post dialysis, approximately 72 hours prior to the next HD session) and a second dose of ceftolozane/tazobactam approximately 2 hours before their second HD session on Day 4 of the study. Infusion of ceftolozane/tazobactam was completed approximately 1 hour before the start of HD.
(§3) Subjects in both cohorts had urine (if not anuric) and plasma samples collected for determination of levels of ceftolozane, tazobactam and the M1 metabolite of tazobactam; subjects in the ESRD on HD cohort also had dialysate fluid samples collected for PK assessment. Plasma, urine, and dialysate levels of ceftolozane, tazobactam, and its metabolite M1 collected over a prespecified interval were determined by LC/MS/MS assay.

[6] = clinical; conditions: human, in vivo; remark: listed apart in the source
Protocol: This TQT study was a single-center, prospective, randomized, double-blind, double-dummy, placebo and active controlled, 4-way crossover study that evaluated a single therapeutic 1.5 g and a single supratherapeutic 4.5 g dose of ceftolozane/tazobactam compared with placebo. Moxifloxacin 400 mg, given orally, was used as a positive control. All subjects received study drug on 4 dosing days (Day 1, Day 5, Day 9, and Day 13) in a crossover fashion with a 3-day wash-out period between doses. Healthy men and women were randomized on a 1:1:1:1 basis to 1 of 4 dosing sequences.
Electrocardiograms were recorded (triplicate measurements) over 24 hours on Day 1, Day 5, Day 9, and Day 13 using a 12-lead Holter monitor. Blood samples for determination of ceftolozane, tazobactam, and the M1 metabolite of tazobactam levels were obtained at prespecified time intervals prior to and following each electrocardiogram (ECG) reading on dosing days. Plasma levels of ceftolozane, tazobactam, and its metabolite M1 were determined by LC/MS/MS assay.

[7] = clinical; conditions: human, in vivo; remark: listed apart in the source
Protocol: as §1, §2, §3
All subjects underwent hemodialysis for 3 to 4 hours using a high-flux membrane (either 1.4, 1.8, or 1.9 m^2) on Days 1, 4, and 6 as scheduled. Average blood flow rate was 264 to 600 mL/min and average dialysis flow rate was either 600 or 800 mL/min for all subjects with ESRD.
All cohorts received ceftolozane/tazobactam as an intravenous infusion over 1 h. The normal, mild, and moderate renal impairment cohorts received a single dose of ceftolozane/tazobactam 1,000 mg/500 mg; the severe renal impairment cohort received a single dose of ceftolozane/tazobactam 500 mg/250 mg; the ESRD cohort received a dose of ceftolozane/tazobactam 500 mg/250 mg initiated at the end of HD on day 1 and another dose initiated 2 h before HD on day 4. Subjects with ESRD underwent HD for 3 to 4 h using a high-flux membrane as scheduled; average dialysis flow rate was 600 to 800 ml/min. Revaclear hemodialyzers (Gambro, Stockholm, Sweden) were used in 5 subjects (ultrafiltration coefficient 50 to 60 ml/h/mmHg, high flux membrane of 1.4 to 1.8 m^2) and a CT 190G hemodialyzers (Baxter Healthcare, McGaw Park, Ill.) was used in 1 subject (ultrafiltration coefficient 36 ml/h/mmHg, high flux membrane of 1.9 m^2). The average blood flow rate was 400 to 600 ml/min with the exception of one subject with rates between 264 and 400 ml/min.
Plasma concentrations of ceftolozane and tazobactam were measured prior to, during, and following administration of ceftolozane/tazobactam. Blood samples were collected 30 min prior to administration, at the end of administration and at 5, 15, and 30 min and 1, 2, 3, 5, 7, 9, 11, 15, 25, and 35 h after completion of ceftolozane/tazobactam administration in the normal, mild, and moderate renal impairment cohorts. Severe renal impairment and ESRD cohorts off HD had samples taken 30 min prior to administration and at 0.5, 1, 1.5, 2, 3, 6, 9, 12, 24, 36, and 48 h after the start of administration. On the day of and following HD, the subjects with ESRD had samples taken 30 min prior to administration and at 0.5, 1, 1.5, 2, 3, 4, 5, 6, 9, 12, 24, 36, and 44 h after the start of the administration. The entire dialysate was collected at each of the following intervals: 0 to 1, 1 to 2, 2 to 3, and 3 h to the end of dialysis. Urine for PK analysis was obtained in the normal, mild, and moderate cohorts at 0 to 2, 2 to 4, 4 to 8, 8 to 12, 12 to 24, and 24 to 36 h after the start of ceftolozane/tazobactam administration.

[8] = tested on: QT/QTc interval; type: in vivo, human; conditions: 400 mg orally, positive control
Text: The primary objectives of the study were to evaluate the effect of a single IV supratherapeutic dose of ceftolozane/tazobactam on ventricular repolarization as measured by QTc interval in healthy subjects compared to baseline-adjusted, time-matched placebo and to evaluate the change from the period-specific predose baseline of QT/QTc interval corrected by QTcI (individual QT correction subject-specific formula) across all dose groups.

[9] = tested on: baseline intra-abdominal pathogens (complicated intra-abdominal infections); experiment: Phase 3 study of complicated intra-abdominal infections: clinical cure at test-of-cure; type: in vivo, human; conditions: ME population
Protocol: A total of 979 adults hospitalized with complicated intra-abdominal infections were randomized and received study medications in a multinational, double-blind study comparing CXA-201 (1.5 g IV every 8 hours) plus metronidazole (500 mg IV every 8 hours) to meropenem (1 g IV every 8 hours) for 4 to 14 days of therapy. Complicated intra-abdominal infections included appendicitis, cholecystitis, diverticulitis, gastric/duodenal perforation, perforation of the intestine, and other causes of intra-abdominal abscesses and peritonitis. The primary efficacy endpoint was clinical response at the test-of-cure (TOC) visit in the microbiological intent-to-treat (MITT) population, which included all patients who had at least 1 baseline intra-abdominal pathogen. The key secondary efficacy endpoint was clinical response at the TOC visit in the microbiologically evaluable (ME) population, which included all protocol-adherent MITT patients.

Structure (SMILES): C[C@H]1COc2c(N3CCN(C)CC3)c(F)cc3c(=O)c(C(=O)O)cn1c23 [Levofloxacin, levofloxacin]
- gram-negative pathogens isolated at baseline that were susceptible [1]: 70.7%
- ALT increased [2]: 5 (0.9)
- AST increased [2]: 5 (0.9)
- Abdominal pain [2]: 2 (0.4)
- Adverse events occurred, patients [2]: 34.4%
- Constipation [2]: 17 (3.2)
- Diarrhea [2]: 23 (4.3)
- Headache [2]: 26 (4.9)
- Nausea [2]: 9 (1.7)
- Vomiting [2]: 6 (1.1)
- gastrointestinal symptoms [2]: 11.4%
- headache [2]: 4.9%
- incidence of treatment-limiting adverse events [2]: < 2%
- composite cure rate [3]: 57.6%

Structure (SMILES): C[C@](Cn1ccnn1)([C@@H](N)C(=O)O)S(=O)O [M1 Metabolite]
- t1/2, geometric mean [4]: 6.67 h
- AUClast, mean (CV %) [5]: 53.7 (25) μg · h/mL
- AUC∞, mean (CV %) [5]: 60.3 (30) μg · h/mL
- Median tmax [6]: 3.7 h
- AUC0-∞ [7]: 31.0 (23.4-34.9) μg * hr/mL
- AUC48h Ratio (Day 3:1), median (range) [7]: 0.49 (0.38-0.78)
- AUC(0-t) [7]: 26.8 (3.77-32.0) μg * hr/mL
- AUCt0-t1, median (range) [7]: 27.5 (3.8-32.7) μg * hr/mL
- Change in Concentration [7]: 9.1 (0.5-14.5)
- Clast [7]: 0.41 (0.26-1.11) μg/mL
- Clast lower than Cmax [7]: ~26 fold
- Cmax [7]: 10.9 (1.26-15.7) μg/mL
- Concentration after HD [7]: 0.4 (0.3-1.1) μg/mL
- Concentration before HD [7]: 9.4 (1.4-14.9) μg/mL
- Half-Life, median (range) [7]: 368.4^a hr
- Percent Removed [7]: 93.4 (38.1-97.7) %
- Percent Removed, median (range) [7]: 51 (22-63)
- Tmax [7]: 1.50 (0.50-1.50) hr
- half-life [7]: 1.80 (0.68-2.38) hr
- median RDHD (percent reduction in plasma concentration during HD) [7]: 93%
- median dialysis clearance (CLD) [7]: 4.59 L/h
- removed by dialysis [7]: ~51%
- t1/2 during the HD period (median) [7]: 1.80 h

Structure (SMILES): COc1c(N2C[C@@H]3CCCN[C@@H]3C2)c(F)cc2c(=O)c(C(=O)O)cn(C3CC3)c12 [moxifloxacin]
- 95% lower confidence bound on difference from baseline for QTcI vs placebo [8]: above 5 ms

Structure (SMILES): C[C@@H](O)[C@H]1C(=O)N2C(C(=O)O)=C(S[C@@H]3CN[C@H](C(=O)N(C)C)C3)[C@H](C)[C@H]12 [Meropenem, meropenem]
- ALT increased [2]: 5 (1.0)
- AST increased [2]: 3 (0.6)
- Abdominal pain [2]: 2 (0.4)
- Constipation [2]: 6 (1.2)
- Diarrhea [2]: 25 (5.0)
- Headache [2]: 9 (1.8)
- Nausea [2]: 29 (5.8)
- Vomiting [2]: 20 (4.0)
- Per pathogen clinical cure rate ([9]; Aerobic Gram-negative): (93.8) %
- Per pathogen clinical cure rate ([9]; Aerobic Gram-positive): (91.9) %
- Per pathogen clinical cure rate ([9]; Anaerobic Gram-negative): (96.4) %
- Per pathogen clinical cure rate ([9]; Bacteroides thetaiotaomicron): (93.0) %
- Per pathogen clinical cure rate ([9]; Klebsiella pneumoniae (CTX-M-15 ESBL-producing)): (0) %
